Read-outs that look alike come from different tables or passages of the source.
What was measured:
[1] = system: HeLa cervical adenocarcinoma cells; test: bipolar spindle formation in HeLa cells; type: cell-based, human; conditions: for IC50: read-out: Bipolar spindle formation IC50; for inhibitory activity in the cell-based assay: HeLa bipolar spindle formation
Protocol: (§1) Biochemical- and cell-based assays were used to evaluate the inhibitory activities of the STLC analogs. Using a commercially available assay from Cytoskeleton, Inc, analogs were assayed for their ability to block the microtubule-activated ATPase activity of recombinant human EG5 motor domain. In parallel, HeLa cells were treated for four hours with a range of concentrations, and then fixed, stained for microtubules, and mitotic cells were scored for spindle bipolarity.

[2] = target: T1, recombinant human EG5 motor domain (Homo sapiens, UniProt P52732); test: microtubule-activated Eg5 ATPase assay (Cytoskeleton, Inc); type: biochemical; conditions: for IC50: microtubule-activated ATPase activity of recombinant human EG5 motor domain; for inhibitory activity in the biochemical assay: Eg5 ATPase assay
T1 construct: recombinant human EG5 motor domain; purchased Cytoskeleton, Inc
T1 sequence (P52732 18-359 limits assumed): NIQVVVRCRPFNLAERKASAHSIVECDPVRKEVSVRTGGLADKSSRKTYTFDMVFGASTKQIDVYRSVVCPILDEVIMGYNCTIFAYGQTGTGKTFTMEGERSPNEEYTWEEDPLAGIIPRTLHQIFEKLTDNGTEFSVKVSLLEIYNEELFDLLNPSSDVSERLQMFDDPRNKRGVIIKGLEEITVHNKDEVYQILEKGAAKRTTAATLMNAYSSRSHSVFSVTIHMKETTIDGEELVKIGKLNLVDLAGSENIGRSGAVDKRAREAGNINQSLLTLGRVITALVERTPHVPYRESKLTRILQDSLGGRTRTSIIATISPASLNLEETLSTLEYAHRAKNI
Protocol: as §1

SK-OV-3 = conditions: Ovarian SK-OV-3; data previously determined; cited from earlier work
HCT-116 = conditions: Colon HCT-116; data previously determined; cited from earlier work
UO-31 = conditions: Renal UO-31; data previously determined; cited from earlier work
NCI-H226 = conditions: Non-Small Cell Lung NCI-H226; data previously determined; cited from earlier work
NCI-H522 = conditions: Non-Small Cell Lung NCI-H522; data previously determined; cited from earlier work
OVCAR-5 = conditions: Ovarian OVCAR-5; data previously determined; cited from earlier work
U251 = conditions: Central Nervous System U251; data previously determined; cited from earlier work
SF-295 = conditions: Central Nervous System SF-295; data previously determined; cited from earlier work
[3] = Homo sapiens, HeLa cells treated with analog for 4 hours, scored for bipolar vs monopolar spindle formation

Compound | IC50 [1, 3] [nM] | IC50 [2] [nM] | inhibitory activity in the cell-based assay [1] | inhibitory activity in the biochemical assay [2] | other results
COC(=O)[C@@H](N)CSC(c1ccccc1)(c1ccccc1)c1ccccc1 [Compound 3.2, (R)-methyl 2-amino-3-(tritylthio)propanoate] | 920 | 510 | – | – | –
N[C@H](CO)CSC(c1ccccc1)(c1ccccc1)c1ccccc1 [Compound 1.1] | – | – | – | – | IC50 ([1]; Homo sapiens, HeLa, 4 h): 580 nM
N[C@@H](CSC(c1ccccc1)(c1ccccc1)c1cccnc1)C(=O)O [Compound 3.4, (R)-2-amino-3-((diphenyl(pyridin-3-yl)methyl)thio)propanoic acid] | > 100000 | > 100000 | no measurable activity | no measurable activity | –
N[C@@H](COC(c1ccccc1)(c1ccccc1)c1ccccc1)C(=O)O [Compound 2.8, (S)-2-amino-3-(trityloxy)propanoic acid] | 850 | 760 | – | – | –
N[C@@H](CSC(c1ccccc1)(c1ccccc1)c1ccccc1)C(=O)O [Compound 2.5, (R)-2-amino-3-(tritylthio)propanoic acid] | 660 | – | – | – | GI50 (SK-OV-3): 100000 nM; GI50 (HCT-116): 500 nM; GI50 (UO-31): 100000 nM; GI50 (NCI-H226): 100000 nM; GI50 (NCI-H522): 500 nM; GI50 (OVCAR-5): 100000 nM; GI50 (U251): 1000 nM; GI50 (SF-295): 500 nM
CC(=O)N[C@@H](CSC(c1ccccc1)(c1ccccc1)c1ccccc1)C(N)=O [Compound 3.6, (R)-2-acetamido-3-(tritylthio)propanamide] | > 100000 | > 100000 | no measurable activity | no measurable activity | –
N[C@@H](CSC1c2ccccc2-c2ccccc21)C(=O)O [Compound 3.0, (R)-3-((9H-fluoren-9-yl)thio)-2-aminopropanoic acid] | > 100000 | > 100000 | no measurable activity | no measurable activity | –
COc1ccc(C(SC[C@@H](N)CO)(c2ccccc2)c2ccccc2)cc1 [Compound 1.3] | – | – | – | – | IC50 ([1]; Homo sapiens, HeLa, 4 h): 200 nM
C#CCNC(=O)[C@@H](N)CSC(c1ccccc1)(c1ccccc1)c1ccccc1 [Compound 3.5, (R)-2-amino-N-(prop-2-yn-1-yl)-3-(tritylthio)propanamide] | 760 | 490 | – | – | –
N[C@@H](CSCC1c2ccccc2-c2ccccc21)C(=O)O [Compound 2.7, (R)-3-(((9H-fluoren-9-yl)methyl)thio)-2-aminopropanoic acid] | > 100000 | > 100000 | no measurable activity | no measurable activity | –
CCCCNC(=O)[C@@H](N)CSC(c1ccccc1)(c1ccccc1)c1ccccc1 [Compound 3.8, (R)-2-amino-N-butyl-3-(tritylthio)propanamide] | 680 | 560 | – | – | –
NC(=O)[C@@H](N)CSC(c1ccccc1)(c1ccccc1)c1ccccc1 [Compound 3.3, (R)-2-amino-3-(tritylthio)propanamide] | 670 | 540 | – | – | –
N[C@@H](CSC(c1ccccc1)c1ccccc1)C(=O)O [Compound 2.9, (R)-2-amino-3-(benzhydrylthio)propanoic acid] | > 100000 | > 100000 | no measurable activity | no measurable activity | –
C#CCNC(=O)[C@@H](N)CSC(c1ccccc1)(c1ccccc1)c1ccc(OC)cc1 [Compound 4.0] | 440 | 310 | – | – | –
(R)-2-amino-3-(((4-methoxyphenyl)diphenylmethyl)thio)propanamide [Compound 3.9] | – | – | no measurable activity | no measurable activity | IC50 ([1]; HeLa cells treated with analog for 4 hours, scored for bipolar vs monopolar spindle formation): > 100000 nM
CC(=O)N[C@@H](CSC(c1ccccc1)(c1ccccc1)c1ccccc1)C(=O)O [Compound 3.1, (R)-2-acetamido-3-(tritylthio)propanoic acid] | > 100000 | > 100000 | no measurable activity | no measurable activity | –
COc1ccc(C(SC[C@H](N)C(=O)NCCOCCN)(c2ccccc2)c2ccccc2)cc1 [Compound 4.2, (R)-2-amino-N-(2-(2-aminoethoxy)ethyl)-3-(((4-methoxyphenyl)diphenylmethyl)thio)propanamide] | 540 | 280 | – | – | –
